30 compounds from PubChem BioAssay (NCI) can be followed below.

Test in all cases: NCI tumour cell line growth inhibition, 48 h
Experiment [1] has as its system CAKI-1 renal.
For experiment [2], the system named is HT29 colon.
Experiment [3] concerns MOLT-4 leukemia.
Experiment [4] deals with OVCAR-4 ovarian.
For experiment [5], the system named is SF-268 CNS.
The test system of experiment [6] is SK-MEL-28 melanoma.
In experiment [7] the test system is SNB-75 CNS.
The subject of experiment [8] is RXF 393 renal.
Experiment [9] deals with MCF7 breast.
Experiment [10] deals with MDA-MB-231 breast.

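These data come from cells grown in 96-well plates and exposed to compound for 48 hours at five concentrations. At the GI50, growth is halved. TGI is the concentration that stops growth completely.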

Consider `O/N=C1/CCCC/C1=C\c1ccc(Cl)c(Cl)c1`, for which the TGI was 99.7 µM in [1]; 39.9 µM in experiment [2]; 36.4 µM in experiment [3]; 59.3 µM in experiment [4]; above 100 µM in [5]; above 100 µM in [6]. The same compound yielded a TGI in experiment [7] of 60.1 µM.
Take `O=CN/C=C/c1ccccc1`: the TGI in [1], in experiment [2], in experiment [3], in experiment [4], in experiment [8] and in experiment [5] was above 100 µM in each case. Further, the TGI in [6] and in experiment [7] was above 100 µM in each case.
For the compound `C[C@@H]1CC[C@@]2(C)OC(c3ccccc3)[C@H](CO)N2C1=O` (stereo not given in full), the TGI in experiment [1], in experiment [2], in experiment [4], in experiment [8], in [5] and in experiment [6] was above 100 µM each time. In experiment [7], this compound showed a TGI above 100 µM.
Regarding `O=S1Nc2cccc(C(F)(F)F)c2S1` (stereo not given), the TGI in [1] is above 100 µM; in experiment [2], above 100 µM; in [3], 55.4 µM; in experiment [4], above 100 µM; in [8] it was 73.7 µM; in [5], above 100 µM. Moreover, the TGI in experiment [6] is above 100 µM; in [7], 82.8 µM.
With `CCCN(CCC)c1ccc(/C=N/NC(=O)c2cccnc2)c(C)c1`, the GI50 in experiment [1] is 19.2 µM; in experiment [2], 8.54 µM; in experiment [9] it was 17.7 µM; in experiment [3], 16.5 µM; in experiment [4], 15.3 µM; in experiment [8], 15.1 µM. Further, the GI50 is 13.9 µM in [5], 16.4 µM in [6] and 12.5 µM in [7]. Further, the TGI in experiment [1] was found to be 58.7 µM; in experiment [2], 25.2 µM; in experiment [9], 36.8 µM; in experiment [3], 42.6 µM; in experiment [4] it was 78.5 µM; in [8], 30.7 µM. Besides, the TGI worked out at 31.2 µM in experiment [5], 43.1 µM in [6] and 36.1 µM in experiment [7].
In the case of `Cc1nc2ccccc2c(=O)n1/N=C(\N=Nc1ccccc1)c1ccccc1Cl`, the TGI in experiment [1] was 81.4 µM; in experiment [2], above 100 µM; in [3] it was above 100 µM; in experiment [4], above 100 µM; in [8], 61.8 µM; in experiment [5] it was above 100 µM. Moreover, the TGI in experiment [6] was above 100 µM; in experiment [7] it was 82.2 µM.
Consider `CCOC(=O)C1CC(=O)C=C2CCCCC21` (stereo not given), for which the TGI in [1], in experiment [2], in experiment [3], in experiment [4], in experiment [8] and in experiment [5] was above 100 µM each time. In addition, the TGI in experiment [6] and in [7] was above 100 µM each time.
As for `O=C1CCCc2ccc([N+](=O)[O-])c(O)c21`, the TGI in experiment [1], in experiment [2], in experiment [3], in [4], in [8] and in experiment [5] was above 100 µM each time. In addition, the TGI in [6] and in [7] was above 100 µM each time.
With `CC1OC(n2cc(F)c(=O)[nH]c2=O)CCC1=O` (stereo not given), the TGI in experiment [1], in [2], in [3], in experiment [4], in [8] and in experiment [5] was above 100 µM each time. In [7], this compound registered a TGI above 100 µM.
Take `C[C@]12Cc3conc3C(O)=C1CC[C@@H]1C2CC[C@@]2(C)C1CC[C@@H]2O` (stereo not given in full): the TGI in [1] was above 100 µM; in experiment [2], above 100 µM; in [3] it was 37.7 µM; in experiment [4], above 100 µM; in experiment [8], 44.9 µM; in experiment [5] it was 73.1 µM. In addition, the values for the TGI in experiment [6] and in experiment [7] were above 100 µM and 31.1 µM, respectively.
In the case of `COC(=O)c1c2c(c(C)[n+]([O-])c1C)C(=O)C(NCc1ccccc1)=CC2=O`, the GI50 in [1] is 2.84 µM; in experiment [2] it was 1.97 µM; in experiment [9], 1.65 µM; in experiment [3], 2.21 µM; in experiment [4], 1.13 µM; in experiment [8], 2.48 µM. Moreover, the GI50 is 2.81 µM in [5], 4.63 µM in [6] and 3.62 µM in experiment [7]. Further, the TGI came out at 14.3 µM in experiment [1]; 10.2 µM in experiment [2]; 3.73 µM in experiment [9]; 5.6 µM in experiment [3]; 2.4 µM in [4]; 7.88 µM in [8]. The TGI was 9.69 µM in experiment [5], 22.2 µM in experiment [6] and 13.9 µM in experiment [7].
On to `CCOC(=O)NC(=O)c1cn(CCSCCOC(=O)NCCCCCCNC(=O)OCCSCCn2cc(C(=O)NC(=O)OCC)c(=O)n(C)c2=O)c(=O)n(C)c1=O`, for which the TGI in experiment [2], in experiment [3], in [8], in experiment [5], in experiment [6] and in [7] was above 100 µM throughout.
With `COc1ccc2cc3c4cc(OC)c(OC)cc4ccn3c2c1`, the TGI in experiment [1], in [2], in experiment [3], in [4], in [8] and in experiment [5] was above 100 µM in each case. For the same compound, the TGI in experiment [6] is above 100 µM.
As to `COc1ccc(C)c2sc(N(Cc3cccnc3)C(=O)c3ccc(C#N)cc3)nc12`, the GI50 in experiment [1] is 47.2 µM; in [2] it was 28.5 µM; in experiment [10] it was 38.2 µM; in experiment [3], 33.5 µM; in [8], 26.1 µM; in experiment [5], 58.7 µM. The TGI in experiment [1] is above 100 µM; in [2], above 100 µM; in experiment [10], above 100 µM; in [3], above 100 µM; in experiment [8] it was 99.8 µM; in experiment [5], above 100 µM.
As for `O=C(O)c1cnc2c(ccc3[nH]cccc32)c1=O`, the TGI in [2], in [3], in [4], in experiment [8], in experiment [5] and in [6] was above 100 µM in each case. In [7], this compound registered a TGI above 100 µM.
In the case of `Cc1cc(-c2nc3sc(C)cn3c2/C=N/N=C(N)N)c(C)s1`, the GI50 in experiment [1] is 17.4 µM; in [2], 3.74 µM; in experiment [10], 3.49 µM; in experiment [3] it was above 100 µM; in experiment [4], 10.7 µM; in experiment [8], 15 µM. For the same compound, the GI50 in experiment [5] was 13.6 µM; in [6] it was 2.02 µM. The TGI was 32.4 µM in experiment [1]; 20.2 µM in [2]; 16.3 µM in [10]; above 100 µM in experiment [3]; 27.4 µM in experiment [4]; 32.7 µM in experiment [8]. Moreover, the TGI in [5] is 28.9 µM; in experiment [6] it was 4.12 µM.
Consider `CC(=O)N1c2ccccc2N(C(C)=O)C1c1ccc(C2N(C(C)=O)c3ccccc3N2C(C)=O)[nH]1`, for which the TGI in experiment [1], in experiment [2], in experiment [3], in experiment [4], in experiment [8] and in [5] was above 100 µM each time. Besides, the TGI in experiment [7] was above 100 µM.
Take `O=C1CCC2(c3ccc(Cl)cc3)Nc3ccccc3N12` (stereo not given): the TGI in [2], in experiment [3], in [4], in [8], in experiment [5] and in [6] was above 100 µM in each case. This compound came in with a TGI in experiment [7] above 100 µM.
Regarding `COc1ccc(C2(Cl)C(Cl)(C(F)(F)F)C2(Cl)C(F)(F)F)cc1` (stereo not given), the TGI was 29.5 µM in experiment [1]; 27.8 µM in experiment [2]; 15 µM in experiment [3]; 30 µM in [4]; 24.6 µM in experiment [8]; 29 µM in experiment [5]. The values for the TGI in experiment [6] and in [7] were 29 µM and 28 µM, respectively.
On to `N#CC(Sc1ccccc1)C(N)=O` (stereo not given), for which the TGI in [1], in [2], in [3], in [4], in experiment [8] and in experiment [5] was above 100 µM in each case. This compound showed a TGI in [7] above 100 µM.
On to `C=CCCn1nc(-c2ccccc2)oc1=O`, for which the TGI in [1], in experiment [2], in experiment [3], in experiment [4], in experiment [8] and in experiment [5] was above 100 µM throughout. In addition, the TGI in [6] and in experiment [7] was above 100 µM throughout.
As to `CC(C)N(C(=O)C12C3C4C5C3C1(C(=O)O)C5C42)C(C)C` (stereo not given), the TGI in experiment [1], in experiment [2], in experiment [3], in experiment [4], in experiment [5] and in [6] was above 100 µM in each case. In [7], this compound yielded a TGI above 100 µM.
In the case of `C=CC12CCCCC1CC(C(=O)OC)=C(O)C2` (stereo not given), the TGI in experiment [1], in [2], in [3], in [4], in experiment [8] and in experiment [5] was above 100 µM in each case. For the same compound, the TGI in [6] and in [7] was above 100 µM throughout.
As for `O=CCCn1[nH]c(=O)ccc1=O`, the TGI in experiment [1], in experiment [2], in experiment [3], in [4], in experiment [8] and in [5] was above 100 µM throughout. The TGI in experiment [6] and in [7] was above 100 µM in each case.
As for `NC1=NN(c2ccccc2)C(=O)C1C(=O)C(=O)Nc1ccccc1` (stereo not given), the TGI in experiment [1], in experiment [2], in [3], in experiment [4] and in experiment [5] was above 100 µM throughout.
Turning to `CC(C)C1=Cc2ccc3c(c2C(=O)C1=O)CCCC3`, the TGI in experiment [1] stood at 2.15 µM; in experiment [2], 25.1 µM; in [10] it was 34.1 µM; in [4] it was 3.16 µM; in experiment [8], 7.82 µM; in experiment [5], 16.6 µM. The TGI in experiment [6] was determined as 15.8 µM; in experiment [7], 4.76 µM.
Turning to `Cn1cnc([N+](=O)[O-])c1Sc1n[nH]c(-c2ccc(Cl)cc2)n1`, the TGI amounted to 78.8 µM in experiment [1]; 42.5 µM in [2]; 38.1 µM in experiment [3]; 57.4 µM in [4]; 26.5 µM in [8]; 50.7 µM in [5]. In addition, the TGI in experiment [6] came to 30.3 µM; in experiment [7], 50.7 µM.
In the case of `CCCCCCCCCCCCCCCCc1c(C(=O)OC)nc(NC#N)[nH]c1=O`, the TGI in experiment [2], in [3], in experiment [4], in experiment [8], in experiment [5] and in experiment [6] was above 25 µM throughout. In addition, the TGI in experiment [7] was above 25 µM.
On to `CN(C)CC1(C)CC/C(=C\c2ccc(Cl)cc2)C1=O` (stereo not given), for which the TGI is above 100 µM in experiment [1]; above 100 µM in [2]; 55.8 µM in experiment [3]; above 100 µM in [4]; 82.1 µM in experiment [8]; above 100 µM in experiment [5]. The TGI in experiment [6] and in experiment [7] was above 100 µM in each case.
Consider `ClCc1ccccc1Cn1cnc2nc(Cl)nc(Cl)c21`, for which the GI50 in experiment [1] was 7.16 µM; in [2] it was 0.412 µM; in [10] it was 0.219 µM; in [3], 1.49 µM; in experiment [4] it was 1.76 µM; in experiment [5], 0.379 µM. For the same compound, the GI50 in experiment [6] was 0.582 µM; in experiment [7], 1.6 µM. For the same compound, the TGI in experiment [1] was 18.5 µM; in [2], above 100 µM; in experiment [10], 0.642 µM; in experiment [3], 4.09 µM; in experiment [4], 4.46 µM; in [8] it was 2.94 µM. The TGI was above 49.4 µM in experiment [5] and 3.43 µM in [7].
